According to publication PMC7817177 (eLife, 2021):
Values belong to the molecule of their own block, whether it stands above or below them.

Columns and labels:
ARL3 = target: T1, ARL3 (Homo sapiens, UniProt P36405); assay: fluorescence polarisation, competition with mantGDP; assay type: binding; settings: 2 uM mantGDP, 2 uM ARL3-GDP, 2 uM ARL13B 18-278 (GEF) present, pH 7.5, 5 mM MgCl2, room temperature, competitive
T1 construct: full-length, C-terminal His6 tag (untagged thrombin-cut version in some assays), E. coli BL21-CodonPlus(DE3)-RIL
T1 sequence (P36405 2-182): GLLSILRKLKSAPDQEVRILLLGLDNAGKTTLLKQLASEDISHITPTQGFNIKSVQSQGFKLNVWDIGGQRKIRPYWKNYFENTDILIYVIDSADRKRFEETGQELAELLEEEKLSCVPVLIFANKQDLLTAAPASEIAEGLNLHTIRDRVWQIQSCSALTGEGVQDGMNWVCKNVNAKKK

ARL3^ΔN (ARL3^17-182) = target: T2, ARL3^ΔN (ARL3^17-182) (Homo sapiens, UniProt P36405); assay: fluorescence polarisation nucleotide exchange, displacement of mantGDP; assay type: binding; settings: 150 uM GppNHp with ARL13B 18-278 (GEF); competitive
T2 construct: residues 17-182 (N-terminal helix removed), C-terminal His6 tag, E. coli
T2 sequence (P36405 17-182, stated change not applied): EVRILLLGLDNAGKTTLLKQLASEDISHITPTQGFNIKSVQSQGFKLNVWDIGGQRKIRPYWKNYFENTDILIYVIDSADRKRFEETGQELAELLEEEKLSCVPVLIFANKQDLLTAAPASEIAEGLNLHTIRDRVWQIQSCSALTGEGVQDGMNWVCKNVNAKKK

[1] = target: ADP-ribosylation factor-like 3 (ARL3), full length (human, UniProt P36405 1-182); assay: cell-based or functional assay
Sequence of ADP-ribosylation factor-like 3 (ARL3), full length (P36405 whole entry): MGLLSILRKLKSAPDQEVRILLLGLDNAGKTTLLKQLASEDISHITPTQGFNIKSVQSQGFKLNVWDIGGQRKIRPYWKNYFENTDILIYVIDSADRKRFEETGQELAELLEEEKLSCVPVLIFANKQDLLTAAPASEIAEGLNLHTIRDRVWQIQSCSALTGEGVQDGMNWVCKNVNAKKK

Molecule: Nc1nc2c(ncn2[C@@H]2O[C@H](COP(=O)(O)OP(=O)(O)O)[C@@H](O)[C@H]2O)c(=O)[nH]1 [GDP]
% mantGDP binding relative to no unlabelled nucleotide (ARL3; 40 uM unlabelled GDP): excess unlabelled GDP was able to compete with mantGDP

B1: GST-tagged binder of ARL2 (BART), full length (natural protein, human, UniProt Q9Y2Y0 1-163, looked up)
chain: MDALEGESFALSFSSASDAEFDAVVGYLEDIIMDDEFQLLQRNFMDKYYLEFEDTEENKLIYTPIFNEYISLVEKYIEEQLLQRIPEFNMAAFTTTLQHHKDEVAGDIFDMLLTFTDFLAFKEMFLDYRAEKEGRGLDLSSGLVVTSLCKSSSLPASQNNLRH
acceleration by 20 µM BART of the exchange of 2 µM ARL3mantGDP with 150 µM unlabelled GDP and 10 µM ARL13B^18-278 (fluorescence polarisation) [1]: ~70 fold

Further lines, with some results ahead:

% mantGDP binding relative to no unlabelled nucleotide (ARL3; 40 uM unlabelled GppNHp): 83.7%
Molecule: Nc1nc2c(ncn2[C@@H]2O[C@H](COP(=O)(O)OP(=O)(O)NP(=O)(O)O)[C@@H](O)[C@H]2O)c(=O)[nH]1 [GppNHp]
fluorescence polarisation nucleotide exchange, displacement of mantGDP (ARL3^ΔN (ARL3^17-182)): ARL3^ΔN undergoes significant nucleotide exchange upon the addition of ARL13B

% mantGDP binding relative to no unlabelled nucleotide (ARL3; 40 uM unlabelled GTP): 53%
Molecule: Nc1nc2c(ncn2[C@@H]2O[C@H](COP(=O)(O)OP(=O)(O)OP(=O)(O)O)[C@@H](O)[C@H]2O)c(=O)[nH]1 [GTP]
